Source: US8044198B2, “Sirtuin modulating compounds” (Sirtris Pharmaceuticals, Inc., priority 2005, dated 2011)
pEC50, pIC50: −log10 of the molar value.

Key:
SIRT1 [1] = biological target: T1, SIRT1 (Homo sapiens, UniProt Q96EB6); assay: SIRT1 fluorescence polarization (FP) deacetylation assay with p53-based peptide substrates; format: biochemical; settings: for pEC50: SIRT1 activation, read-out: ED50 FP ASSAY; for pIC50: Sirt1 Inhibitors
T1 sequence (Q96EB6 1-747): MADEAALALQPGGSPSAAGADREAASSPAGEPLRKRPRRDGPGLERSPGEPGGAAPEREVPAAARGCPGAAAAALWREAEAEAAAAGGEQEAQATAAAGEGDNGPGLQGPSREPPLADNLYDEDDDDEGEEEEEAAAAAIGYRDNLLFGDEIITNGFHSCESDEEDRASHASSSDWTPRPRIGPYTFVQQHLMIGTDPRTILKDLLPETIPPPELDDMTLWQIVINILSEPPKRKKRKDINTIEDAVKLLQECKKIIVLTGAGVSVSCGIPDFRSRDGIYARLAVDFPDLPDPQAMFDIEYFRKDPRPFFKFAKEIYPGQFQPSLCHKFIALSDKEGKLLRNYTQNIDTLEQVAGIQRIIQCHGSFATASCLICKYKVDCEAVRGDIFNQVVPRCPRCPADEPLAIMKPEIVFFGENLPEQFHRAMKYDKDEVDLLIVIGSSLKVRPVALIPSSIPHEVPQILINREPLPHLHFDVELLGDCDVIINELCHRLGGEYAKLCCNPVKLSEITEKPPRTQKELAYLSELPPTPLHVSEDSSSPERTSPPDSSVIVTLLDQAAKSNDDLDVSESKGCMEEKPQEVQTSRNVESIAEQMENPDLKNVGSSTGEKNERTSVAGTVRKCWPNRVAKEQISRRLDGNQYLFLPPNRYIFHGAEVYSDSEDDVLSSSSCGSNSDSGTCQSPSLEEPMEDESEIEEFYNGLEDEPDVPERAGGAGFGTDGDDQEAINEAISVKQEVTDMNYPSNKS
Description: A fluorescence polarization or mass spectrometry based assay was used to identify modulators of SIRT1 activity. The same assay may be used to identify modulators of any sirtuin protein. The fluorescence polarization assays utilizes one of two different peptides based on a fragment of p53, a known sirtuin deacetylation target. Compounds 1-18 were tested using a substrate containing peptide 1 having 14 amino acid residues as follows: […](Ac)NleSTEG (SEQ ID NO: 1) wherein K(Ac) is an acetylated lysine residue and Nle is a norleucine. The peptide is labeled with the fluorophore MR121 (excitation 635 nm/emission 680 nm) at the C-terminus and biotin at the N-terminus. The sequence of the peptide substrate is based on p53 with several modifications. In particular, all arginine and leucine residues other than the acetylated lysine have replaced with serine so that the peptide is not susceptible to trypsin cleavage in the absence of deacetylation. In addition, the methionine residue naturally present in the sequence has been replaced with the norleucine because the methionine may be susceptible to oxidation during synthesis and purification. […] This peptide is labeled with the fluorophore MR121 (excitation 635 nm/emission 680 nm) at the C-termini and biotin at the N-termini. The sequence of the peptide substrates are based on p53 with several modifications. In particular, all arginine and leucine residues other than the acetylated lysine residues have replaced with serine so that the peptides are not susceptible to trypsin cleavage in the absence of deacetylation. In addition, the methionine residues naturally present in the sequences have been replaced with the norleucine because the methionine may be susceptible to oxidation during synthesis and purification. […] The peptide is labeled with the fluorophore 5TMR (excitation 540 nm/emission 580 nm) at the C-terminus. The sequence of the peptide substrate is also based on p53 with several modifications. In addition, the methionine residue naturally present in the sequence was replaced with the norleucine because the methionine may be susceptible to oxidation during synthesis and purification.
The peptide substrates were exposed to a sirtuin protein in the presence of NAD^+ to allow deacetylation of the substrate and render it sensitive to cleavage by trypsin. Trypsin was then added and the reaction was carried to completion (i.e., the deacetylated substrate is cleaved) releasing the MR121 or 5TMR fragment. Streptavidin is then added to the reaction where it can bind both the uncleaved substrate (i.e., any remaining acetylated substrate) and the non-fluorescent portion of the cleaved peptide substrate (i.e., the biotin containing fragment). The fluorescence polarization signal observed for the full length peptide substrates bound to streptavidin was higher than the fluorescence polarization signal observed for the released MR121 or 5TMR C-terminal fragment. In this way, the fluorescence polarization obtained is inversely proportional to the level of deacetylation (e.g., the signal is inversely proportional to the activity of the sirtuin protein). Results were read on a microplate fluorescence polarization reader (Molecular Devices Spectramax MD) with appropriate excitation and emission filters.
The fluorescence polarization assays using peptide 1 was conducted as follows: 0.5 μM peptide substrate and 150 μM βNAD^+ is incubated with 0.1 μg/mL of SIRT1 for 60 minutes at 37° C. in a reaction buffer (25 mM Tris-acetate pH8, 137 mM Na—Ac, 2.7 mM K—Ac, 1 mM Mg—Ac, 0.05% Tween-20, 0.1% Pluronic F127, 10 mM CaCl2, 5 mM DTT, 0.025% BSA, 0.15 mM Nicotinamide). Test compounds 1-18 were solubilized in DMSO and added to the reaction at 11 concentrations ranging from 0.7 μM to 100 μM. […]

SIRT1 [2] = biological target: T1, SIRT1; assay: SIRT1 mass spectrometry (MS) based deacetylation assay; format: biochemical; settings: for pEC50: SIRT1 activation, mass spectrometry assay, read-out: ED50 MS ASSAY; for FOLD ACT. MS: fold activation of SIRT1 as determined by MS
NCI-H358 cells = assay: Cellular ATP Assay (ATPLite 1Step normalized to AlamarBlue viability); format: cell-based; settings: Homo sapiens, compounds that raised intracellular ATP levels, read-out: ED50 ATP ASSAY
Description: Cellular ATP levels are an indirect measurement of cellular metabolic rates and, by extension, mitochondrial function. […] The ATP assay is combined with a cellular viability assay so that cellular ATP levels can be normalized to viable cells. Cellular ATP levels were measured using the ATPLite 1Step Kit (PerkinElmer) and cellular viability was measured using the cell permeable dye, AlamarBlue™.
The Cellular ATP Assay is a multiplexed assay that measures both ATP levels and viability of a given cell sample. This assay is run in a 96-well Assay Plate and data are reported as the [ATP]/viability for each well in the Assay Plate.
The ATPLite 1 Step™ Kit is a single-step luminescent cell-based assay for detection of ATP. The kit contains lyophilized substrate mixture, comprised of D-luciferin and the firefly (Photinus pyralis) enzyme luciferase. Additionally, the kit contains a detergent-based reconstitution buffer that induces the lysis of cellular membranes. The luciferase in the assay mixture catalyzes a reaction between the free cellular ATP and D-luciferin to produce bioluminescence according to the schematic reaction outlined below. The amount of light produced is proportional to the cellular ATP concentration.
The AlamarBlue™ Assay is a single-step assay that utilizes a soluble, non-toxic, cell permeable dye that is added to cell growth media. This dye undergoes electron reduction in viable cells but not dead cells. The reduced dye product gives a fluorescent signal which can be monitored with a fluorescence plate reader (excitation 545 nm and emission 575 nm). The amount of fluorescence generated in a given well is proportional to the number of viable cells. The viability signal generated by this assay is used to normalize the ATP signal from the ATPLite 1Step™ assay results.
The material was dissolved in 100% vehicle (DMSO) to yield a final concentration of 10 mM (stock solution). The stock solution was serially diluted with 100% DMSO as described in SOP 7.10.
In this assay NCI-H358 cells (obtained from the American Tissue Culture Collection, ATCC) were seeded in 96 well microplates (10^4 cells/well). The NCI-H358 Growth Culture Media consists of RPMI 1640 Media supplemented with 10% FBS, […] streptomycin, and 100 units/mL penicillin. […] After 48 hours of compound treatment under cell growth conditions, plates were removed from incubator, and 15 μl of AlamarBlue™ dye was added to each well. Cell microplates were incubated with dye for 2 hours under growth conditions, and fluorescence was subsequently measured using a plate reader. Media containing AlamarBlue™ was removed, and plates were washed in 100 μl of PBS per well. This wash was removed, and 200 μl of 1×ATPLite 1Step reagent was added to each well. Luminescence was then measured using a plate reader. The ATP signal for each well, measured by the luminescence scan, was normalized to its corresponding cell viability value, measured by the fluorescence scan, to generate the average ATP level per viable cell unit (ATP/vCell). The ATP/vCell for each treatment was then normalized to the average vehicle ATP/vCell for its respective cell microplate, yielding the normalized ATP/vCell (norm. ATP/vCell). Finally, the norm. ATP/vCell for each unique treatment was averaged across plate replicates, generating the average norm. ATP/vCell.
Each of these ATP levels was normalized to the cell viability in the corresponding treatment well, generating the ATP/vCell value. Each ATP/vCell value was subsequently normalized to its average Vehicle ATP/vCell values for its respective cell microplate.
Data are represented as the normalized ATP/vCell (arbitrary units). […] These values represent an average of three plate replicates.
A number of compounds were screened for their affect on ATP levels in the assay as described in Example 5. […] NA means that the compound was not tested using the indicated assay.

| Compound | pEC50 (SIRT1 [1]) | pEC50 (SIRT1 [2]) | pIC50 (SIRT1 [1]) | FOLD ACT. MS (SIRT1 [2]) | pEC50 (NCI-H358 cells) |
| --- | --- | --- | --- | --- | --- |
| Cc1ccc(C)n1-c1cccc(C(=O)Nc2ccc(-c3nc4ncccc4o3)cc2)c1 [Compound 19] | < 3.82 | < 3.82 | – | – | – |
| O=C(Nc1ccc(-c2nc3ncccc3o2)cc1)c1ccc(N2CCOCC2)cc1 [Compound 20] | < 3.82 | < 3.82 | – | – | – |
| O=C(Nc1ccc(-c2nc3ncccc3o2)cc1)c1ccc(N2CCCCC2)cc1 [Compound 21] | < 3.82 | < 3.82 | – | – | – |
| COc1ccc(C(=O)Nc2ccc(-c3nc4ncccc4o3)cc2)cc1C(F)(F)F [Compound 22] | < 3.82 | < 3.82 | – | – | – |
| CN(C)c1cccc(C(=O)Nc2ccc(-c3nc4ncccc4o3)cc2)c1 [Compound 23] | – | – | < 3.82 | – | – |
| CN(C)c1ccc(C(=O)Nc2ccc(-c3nc4ncccc4o3)cc2)cc1 [Compound 24] | < 3.82 | < 3.82 | – | – | – |
| N#Cc1cccc(C(=O)Nc2ccc(-c3nc4ncccc4o3)cc2)c1 [Compound 25] | – | – | 4.00 to 4.29 | – | – |
| N#Cc1ccc(C(=O)Nc2ccc(-c3nc4ncccc4o3)cc2)cc1 [Compound 26] | – | – | 4.00 to 4.29 | – | – |
| COc1cccc(OC)c1C(=O)Nc1ccc(-c2nc3ncccc3o2)cc1 [Compound 27] | < 3.82 | < 3.82 | – | – | – |
| O=C(Nc1ccc(-c2nc3ncccc3o2)cc1)c1ccccc1N1CCOCC1 [Compound 28] | – | – | < 3.82 | – | – |
| O=C(Nc1ccc(-c2nc3ncccc3o2)cc1)c1ccc(N2CCCC2)cc1 [Compound 29] | < 3.82 | < 3.82 | – | – | – |
| COc1ccc(C(=O)Nc2ccc(-c3nc4ncccc4o3)cc2)cc1Cl [Compound 30] | – | – | < 3.82 | – | – |
| COc1cccc(C(=O)Nc2ccc(-c3nc4ncccc4o3)cc2)c1C [Compound 31] | < 3.82 | < 3.82 | – | – | – |
| O=C(Nc1ccc(-c2nc3ncccc3o2)cc1)c1cccc(OC(F)(F)F)c1 [Compound 32] | < 3.82 | < 3.82 | – | – | – |
| COc1ccc(C(=O)Nc2ccc(-c3nc4ncccc4o3)cc2)cc1OC [Compound 33] | < 3.82 | < 3.82 | – | – | – |
| COc1ccc(C(=O)Nc2ccc(-c3nc4ncccc4o3)cc2)c(OC)c1OC [Compound 34] | < 3.82 | < 3.82 | – | – | – |
| COc1ccc(C(=O)Nc2ccc(-c3nc4ncccc4o3)cc2)cc1 [Compound 35] | < 3.82 | < 3.82 | – | – | – |
| COc1ccc(C(=O)Nc2ccc(-c3nc4ncccc4o3)cc2)c(OC)c1 [Compound 36] | < 3.82 | < 3.82 | – | – | – |
| O=C(Nc1ccc(-c2nc3ncccc3o2)cc1)c1ccccc1 [Compound 37] | < 3.82 | < 3.82 | – | – | – |
| CN(C)c1cccc(C(=O)Nc2cccc(-c3nc4ncccc4o3)c2)c1 [Compound 42] | 4.30 to 5.30 | 4.30 to 5.30 | – | B (B (Fold Activation <250%)) | > 4.30 |
| CN(C)c1ccc(C(=O)Nc2cccc(-c3nc4ncccc4o3)c2)cc1 [Compound 43] | 4.30 to 5.30 | 4.30 to 5.30 | – | B (B (Fold Activation <250%)) | – |
| COc1cc(C)ccc1C(=O)Nc1cccc(-c2nc3ncccc3o2)c1 [Compound 51] | 4.30 to 5.30 | 4.30 to 5.30 | – | B (B (Fold Activation <250%)) | – |
| COc1ccc(C(=O)Nc2cccc(-c3nc4ncccc4o3)c2)cc1OC [Compound 52] | 4.30 to 5.30 | 4.30 to 5.30 | – | B (B (Fold Activation <250%)) | > 4.30 |
| COc1ccc(C(=O)Nc2cccc(-c3nc4ncccc4o3)c2)c(OC)c1 [Compound 55] | 4.30 to 5.30 | 4.30 to 5.30 | – | B (B (Fold Activation <250%)) | – |
| Cc1cc(SCc2sc(-c3ccc(C(F)(F)F)cc3)nc2C)ccc1OCC(=O)O [Compound 291] | – | – | 4.00 to 4.29 | – | – |
